Assay results published in patent US20230330234A1, “HYPERBRANCHED POLYESTER POLYOL DERIVATIVE AS DRUG SOLUBILIZER” (FREIE UNIVERSITÄT BERLIN, priority 2020, published 2023).
Values after ≈ are worked out from the molar mass of the structure shown.

Assays:
[1] = Carrying potential of h(PG-co-PCL)60S0.95 by UV-VIS; format: physicochemical; details: calculated by UV
Description: For drugs presenting an absorption band at wavelength higher than 400 nm, UV-VIS analysis is chosen as quantification method. First, a calibration curve of the free drug in the suitable solvent mixture is recorded. Suitable combinations of solvent include mixtures of water and methanol, as well as of water and ethanol, in both cases in a ratio falling in a range of from 40 to 60% to 20 to 80%.
The calibration curve is prepared with at least 5 points, in a concentration range depending on the drug to be quantified. Linear regression is applied to generate the equation of the straight-line necessary to calculate the drug content.
The formulation is afterwards dissolved in the same medium and an UV-VIS spectrum is recorded. It is possible to use a straight-line equation to get the concentration of drug in solution. Knowing the total volume of the formulation, the content of drug, in mg, can be calculated.
(§1) The carrying potential (CP) of the polymer (solubilizing agent) is obtained as the ratio of the loaded and solubilized drug to the amount of solubilizing agent (Eq. 1).
(§2) The following tables (Table 5, Table 6 and Table 7) show the results of the performed analyses. In this context, h(PG-co-PCL)60S0.95 was used as hyperbranched polyester polyol derivative. Its non-sulfated backbone has a molecular weight of 60 kDa. The polyester polyol derivative has a sulfation degree of 95%.

[2] = Solubility in water
[3] = Solubility in aqueous solution of the hyperbranched polyester polyol derivative;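 further: drug added to a previously prepared clear aqueous solution of the solubilizing polymer, stirred 18 h at room temperature in the dark, then centrifuged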
[4] = physchem; details: aqueous with cosolvent or surfactant or cyclodextrin, thermodynamic from solid
[5] = physchem; details: water
[6] = system: HeLa cells; assay: Cell viability experiment (toxicity) in HeLa cells; format: cell-based; details: Homo sapiens, free drug solubilized in DMSO vs drug solubilized in sulfated polyester polyol
[7] = system: KB-V1 cells; assay: Cell viability experiment (toxicity) in KB-V1 cells; format: cell-based; details: Homo sapiens, free drug solubilized in DMSO vs drug solubilized in sulfated polyester polyol
[8] = Carrying potential of h(PG-co-PCL)60S0.95 by elemental analysis; format: physicochemical; details: calculated by elemental analysis
From the text: as §1
For drugs presenting an absorption band at wavelength lower than 400 nm, the UV-VIS approach is not suitable, due to drug signals overlapping with signals of the solubilizing agent. Therefore, elemental analysis is chosen as alternative approach. The drugs chosen for the solubilization and entrapment contain nitrogen atoms, which are not present in the polymer structure. Via the quantification of the nitrogen content in the sample, it is possible to determine the amount of drug in it. For the loading quantification, the same equation is used as in the previous case.
as §2

[9] = Size and Z-potential investigation by DLS in PB; format: physicochemical; details: h(PG-co-PCL)60S0.95 with solubilized drug
From the text: The following tables (Table 5, Table 6 and Table 7) show the results of the performed analyses. In this context, h(PG-co-PCL)60S0.95 was used as hyperbranched polyester polyol derivative. Its non-sulfated backbone has a molecular weight of 60 kDa.

SMILES: CNCc1ccc(-c2cc(-c3nc(-c4ccc(S(=O)(=O)C(C)C)cc4)cnc3N)on2)cc1 [Berzosertib]
- Carrying potential [1]: 10% wt %

SMILES: [2H]c1nc(C)nc([2H])c1-c1cc(NC[C@@H](C)c2cccc3c(C(=O)NC)ccnc23)ncn1 [M9831/VX-984]
- Carrying potential [1]: 10% wt %

SMILES: CC(C)(C)C[C@@H]1N[C@@H](C(=O)N[C@H]2CC[C@H](O)CC2)[C@H](c2cccc(Cl)c2F)[C@]12C(=O)Nc1cc(Cl)ccc12 [MI-773]
- Solubility in water [2]: 1 µg/mL (≈ 1.78 µM)
- Solubility in aqueous polymer solution [3]: >300 µg/mL

SMILES: Cc1c(-c2c(-c3ccc(F)o3)sc3ncnc(O[C@H](Cc4ccccc4OCc4ccnn4CC(F)(F)F)C(=O)O)c23)ccc(OCCN2CCN(C)CC2)c1Cl [S63845]
- solubility [4]: > 300 µg/mL
- solubility [5]: 1 µg/mL (≈ 1.21 µM)

SMILES: CN[C@@H]1C[C@H]2O[C@@](C)([C@@H]1OC)n1c3ccccc3c3c4c(c5c6ccccc6n2c5c31)C(=O)NC4 [Staurosporin]
- Solubility in water [2]: 40 µg/mL (≈ 85.7 µM)
- Solubility in aqueous polymer solution [3]: >300 µg/mL

SMILES: CCN(CC)CCNC(=O)c1c(C)[nH]c(/C=C2\C(=O)Nc3ccc(F)cc32)c1C [Sunitinib]
- solubility at 18 h [4]: > 300 µg/mL
- IC50 [6]: 3.52 µg/mL (≈ 8.84 µM)
- solubility ([2]; Solubility in water): 30 µg/mL (≈ 75.3 µM)
- Carrying potential [1]: 11% wt %
- IC50 [7]: 1.95 µg/mL (≈ 4.9 µM)
- Carrying potential [8]: 8.7%^ wt %

SMILES: CC(=O)Nc1cccc(-n2c(=O)n(C3CC3)c(=O)c3c(Nc4ccc(I)cc4F)n(C)c(=O)c(C)c32)c1 [Trametinib]
- solubility at 18 h [4]: > 300 µg/mL
- solubility [5]: 30 µg/mL (≈ 48.7 µM)
- Carrying potential [8]: 2% wt %
- Size (volume) ([9]; DLS in PB, in nm (unit assumed)): 14 ± 2
- Z-potential ([9]; in PB, in mV (unit assumed)): −18.9
